pIC50: −log10 of the molar value.
Legend:
[1] = molecular target: T1, pBTK (Homo sapiens, UniProt Q06187); experiment: In vitro PD assay in whole blood (pBTK assay); type: cell-based; settings: 30 min at 37° C.
T1 construct: Heparinized venous blood was purchased from Bioreclamation, Inc. or SeraCare Life Sciences; tissue Bioreclamation, Inc. or SeraCare Life Sciences; host or cells: heparinized venous whole blood
Description: Heparinized venous blood was purchased from Bioreclamation, Inc. or SeraCare Life Sciences and shipped overnight. Whole blood was aliquoted into 96-well plate and “spiked” with serial dilutions of test compound in DMSO or with DMSO without drug. The final concentration of DMSO in all wells was 0.1%. The plate was incubated at 37° C. for 30 min. Lysis buffer containing protease and phosphatase inhibitors was added to the drug-containing samples and one of the DMSO-only samples (+PPi, high control), while lysis buffer containing protease inhibitors was added to the other DMSO-only samples (−PPi, low control). All of the lysed whole blood samples were subjected to the total BTK capture and phosphotyrosine detection method described in Example 30. ECL values were graphed in Prism and a best-fit curve with restrictions on the maximum and minimum defined by the +PPi high and −PPi low controls was used to estimate the test compound concentration that results in 50% inhibition of ECL signal by interpolation.
In some instances where a compound tested has activity “D”, other structurally similar compounds beyond the measurable limits of the assay are not included in Table 2.

[2] = molecular target: T2, BTK (Homo sapiens, UniProt Q06187); experiment: In vitro BTK kinase assay: BTK-POLYGAT-LS assay; type: biochemical; settings: 10 uM ATP, read-out: IC50 (10 uMATP)
T2 construct: purchased Upstate 14-552
T2 sequence (Q06187 whole entry): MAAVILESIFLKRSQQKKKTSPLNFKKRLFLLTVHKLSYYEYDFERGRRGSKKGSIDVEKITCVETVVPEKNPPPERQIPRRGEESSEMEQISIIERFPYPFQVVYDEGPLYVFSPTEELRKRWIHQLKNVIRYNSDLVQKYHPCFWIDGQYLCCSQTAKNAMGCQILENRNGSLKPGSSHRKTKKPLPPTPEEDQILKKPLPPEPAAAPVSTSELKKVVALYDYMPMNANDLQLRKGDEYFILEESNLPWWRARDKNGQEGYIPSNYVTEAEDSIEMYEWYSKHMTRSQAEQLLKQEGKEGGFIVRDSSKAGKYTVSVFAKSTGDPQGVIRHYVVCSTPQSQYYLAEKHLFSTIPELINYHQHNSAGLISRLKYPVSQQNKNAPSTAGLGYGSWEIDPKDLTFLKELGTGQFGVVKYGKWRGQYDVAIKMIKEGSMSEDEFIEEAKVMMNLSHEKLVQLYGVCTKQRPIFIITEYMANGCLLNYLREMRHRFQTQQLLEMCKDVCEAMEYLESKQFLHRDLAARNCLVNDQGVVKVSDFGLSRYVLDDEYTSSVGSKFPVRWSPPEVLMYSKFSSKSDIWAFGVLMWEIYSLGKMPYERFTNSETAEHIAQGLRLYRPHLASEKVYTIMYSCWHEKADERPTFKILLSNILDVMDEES

T1 sequence (Q06187 whole entry): as above

| SMILES | pIC50 [1] | pIC50 [2] |
| --- | --- | --- |
| Cc1cc(-c2ncnc3cc(-c4cn(C)nc4C)[nH]c23)ccc1CNC(=O)c1cnc(C(C)(C)C)s1 [Example I-39, 2-(tert-butyl)-N-(4-(6-(1,3-dimethyl-1H-pyrazol-4-yl)-5H-pyrrolo[3,2-d]pyrimidin-4-yl)-2-methylbenzyl)thiazole-5-carboxamide] | > 6.30 | > 8.00 |
| Cc1cc(-c2ncnc3cc(-c4cnn(C)c4)[nH]c23)ccc1CNC(=O)c1ncc(C(C)(C)C)s1 [Example I-36] | > 6.30 | > 8.00 |
| Cc1cc(-c2ncnc3[nH]ccc23)ccc1CNC(=O)c1ccc(C(C)(C)C)cc1 [Example I-2, 4-(tert-butyl)-N-(2-methyl-4-(7H-pyrrolo[2,3-d]pyrimidin-4-yl)benzyl)benzamide] | 5.00 to 5.82 | > 8.00 |
| Cc1cc(-c2ncnc3[nH]c(-c4cnn(C)c4)cc23)ccc1C(C)NC(=O)c1cc2c(s1)CCOC2 (stereo not drawn) [Example I-113, N-(1-(2-methyl-4-(6-(1-methyl-1H-pyrazol-4-yl)-7H-pyrrolo[2,3-d]pyrimidin-4-yl)phenyl)ethyl)-6,7-dihydro-4H-thieno[3,2-c]pyran-2-carboxamide] | 5.00 to 5.82 | > 8.00 |
| Cc1cc(-c2ncnc3cc(-c4cnn(C)c4)[nH]c23)ccc1CNC(=O)c1cc2c(s1)CCOC2 [Example I-42, N-(2-methyl-4-(6-(1-methyl-1H-pyrazol-4-yl)-5H-pyrrolo[3,2-d]pyrimidin-4-yl)benzyl)-6,7-dihydro-4H-thieno[3,2-c]pyran-2-carboxamide] | > 6.30 | > 8.00 |
| Cc1cc(-c2ncnc3cc(C4CCN(C)CC4)[nH]c23)ccc1CNC(=O)c1cnc(C(C)(C)C)s1 [Example I-25, 2-(tert-butyl)-N-(2-methyl-4-(6-(1-methylpiperidin-4-yl)-5H-pyrrolo[3,2-d]pyrimidin-4-yl)benzyl)thiazole-5-carboxamide] | 5.82 to 6.30 | > 8.00 |
| Cc1cc(-c2ncnc3[nH]c(-c4cnn(C)c4)cc23)ccc1CNC(=O)c1cnc(C(C)(C)C)s1 [Example I-26, 2-(tert-butyl)-N-(2-methyl-4-(6-(1-methyl-1H-pyrazol-4-yl)-7H-pyrrolo[2,3-d]pyrimidin-4-yl)benzyl)thiazole-5-carboxamide] | > 6.30 | > 8.00 |

Results, then the compound that gave them:

| pIC50 [1] | pIC50 [2] | SMILES |
| --- | --- | --- |
| > 6.30 | > 8.00 | Cc1cc(-c2ncnc3nc(N4CCC(C(=O)O)CC4)[nH]c23)ccc1CNC(=O)c1cnc(C(C)(C)C)s1 [Example I-52, 1-(6-(4-((2-(tert-butyl)thiazole-5-carboxamido)methyl)-3-methylphenyl)-7H-purin-8-yl)piperidine-4-carboxylic acid] |
| > 6.30 | > 8.00 | Cc1cc(-c2ncnc3[nH]c(-c4cnn(C)c4)cc23)ccc1C(CO)NC(=O)c1cc2c(s1)CCOC2 (stereo not drawn) [Example I-32, N-(2-hydroxy-1-(2-methyl-4-(6-(1-methyl-1H-pyrazol-4-yl)-7H-pyrrolo[2,3-d]pyrimidin-4-yl)phenyl)ethyl)-6,7-dihydro-4H-thieno[3,2-c]pyran-2-carboxamide] |
| 5.82 to 6.30 | > 8.00 | Cc1cc(-c2ncnc3[nH]c(-c4cnn(C)c4)cc23)ccc1C(CO)NC(=O)c1cnc(C(C)(C)C)s1 (stereo not drawn) [Example I-31, 2-(tert-butyl)-N-(2-hydroxy-1-(2-methyl-4-(6-(1-methyl-1H-pyrazol-4-yl)-7H-pyrrolo[2,3-d]pyrimidin-4-yl)phenyl)ethyl)thiazole-5-carboxamide] |
| < 5.00 | > 8.00 | CC(C)(C)c1csc(C(=O)NC2CCCc3cc(-c4ncnc5[nH]ncc45)ccc32)n1 (stereo not drawn) [Example I-98, N-(6-(1H-pyrazolo[3,4-d]pyrimidin-4-yl)-1,2,3,4-tetrahydronaphthalen-1-yl)-4-(tert-butyl) thiazole-2-carboxamide] |
| 5.00 to 5.82 | > 8.00 | O=C(N[C@H]1CCCc2cc(-c3ncnc4[nH]ncc34)ccc21)c1cc2c(s1)CCCC2 [Example I-87, (S)—N-(6-(1H-Pyrazolo[3,4-d]pyrimidin-4-yl)-1,2,3,4-tetrahydronaphthalen-1-yl)-4,5,6,7-tetrahydrobenzo[b]thiophene-2-carboxamide] |
| 5.82 to 6.30 | > 8.00 | Cc1cc(-c2ncnc3cc[nH]c23)ccc1CNC(=O)c1cnc(C(C)(C)C)s1 [Example I-115, 2-(tert-butyl)-N-(2-methyl-4-(5H-pyrrolo[3,2-d]pyrimidin-4-yl)benzyl)thiazole-5-carboxamide] |
| 5.00 to 5.82 | > 8.00 | CC(C)(C)c1ncc(C(=O)NC(CO)c2ccc(-c3ncnc4[nH]c(C5=CCS(=O)(=O)CC5)cc34)cc2)s1 (stereo not drawn) [Example I-30, 2-(tert-butyl)-N-(1-(4-(6-(1,1-dioxido-3,6-dihydro-2H-thiopyran-4-yl)-7H-pyrrolo[2,3-d]pyrimidin-4-yl)phenyl)-2-hydroxyethyl)thiazole-5-carboxamide] |
| > 6.30 | > 8.00 | Cc1cc(-c2ncnc3[nH]c(-c4ccc(C(=O)N5CCOCC5)cc4)cc23)ccc1CNC(=O)c1cnc(C(C)(C)C)s1 [Example I-20] |

Reference: patent US10280169B2, “Biaryl bruton's tyrosine kinase inhibitors” (BIOGEN MA INC., priority 2013, dated 2019)
